Marks after values point to notes of the source that are not given here.
Experiments:
[1] = system: peripheral neuralgia induced by paclitaxel; assay: Peripheral neuralgia induced by paclitaxel, hot plate experiment; format: in vivo, ICR mice
Experimental: In this study, paclitaxel (2.8 mg/kg, 10 ml/kg) was injected intraperitoneally every other day, 4 times in total (days 1, 3, 5, 7) to induce peripheral neuralgia model in ICR female mice with a body weight of 20-24 g, and this model was used to observe the preventive effect of fructose-1,6-bisphosphate on the peripheral neuralgia caused by the chemotherapeutic agent. The paclitaxel antitumor agent is one of the first-line agents for human malignant tumors. Dose-limiting toxicity of paclitaxel mainly includes neurotoxicity and myelosuppression, the latter has been successfully overcome by using granulocyte colony-stimulating factor. However, the neurotoxicity, behaving as neuropathic pain, is still a worldwide problem, because the pain caused by this chemotherapy is not sensitive to any clinically used analgesics, and thus some patients have to reduce the dose until withdrawing the agent, which seriously affects the effect of the chemotherapy or even causes a failure of the chemotherapy. Some pains caused by the paclitaxel chemotherapy may not be eliminated immediately after the agent withdrawal, and often continues for months or even years, which seriously affects the life quality of tumor patients. In view of this, the peripheral neuralgia caused by paclitaxel is a representative pain after cancer treatment, and the animal pain model induced by paclitaxel is also representative.
A hot plate method was used to screen mice having relatively uniform heat-sensitive responses for experiments. […]
The heat-sensitive response of hind paws of the mice was measured with a hot plate experiment (52° C.±0.3) at 2 pm to 4 pm every day. […] In this way, a latent period of licking or retracting the hind paws was recorded. […] After the paclitaxel injection finished, the fructose-1,6-bisphosphate was continuously administrated and the heat-sensitive responses of the animals in each group were measured. […]

glioma cells KNS-89 = assay: Lactic acid released by glioma cells (glycolysis); format: cell-based, human
Experimental: (§2) Human glioma cell strains (U87-MG, KNS-89, SHG-44) were respectively incubated in culture media containing 0.8 mM of trisodium fructose-1,6-bisphosphate salt, and 1.6 mM of trisodium fructose-1,6-bisphosphate salt, and 1.6 mM of 2-deoxyglucose, and the contents of lactic acid as the final glycolytic product released by the cells in the culture media were measured after 12 h, 24 h, 36 h, and 48 h. […] Human glioma cell strain (U87-MG) was incubated in the culture medium containing 0.8 mM of trisodium fructose-1,6-bisphosphate salt for 1 h, 3 h, 6 h, 12 h, 24 h, 36 h, and 48 h, and level changes of key metabolic enzymes in the glycolytic pathway of cells were measured by Western Blot at the respective time points.

U87-MG [2] = assay: Intracellular glycolytic intermediates (LC-MS/MS) and FBP in culture medium; format: cell-based, human; conditions: 1.6 mM, 36 h
Experimental: (§1) Rat glioma cell strains (C6), human glioma cell strains (U87-MG, U-251, SHG-44) and patient-derived glioma cells (tumor 1, tumor 3) were incubated in a culture medium containing 1.6 mM of trisodium fructose-1,6-bisphosphate, and after 36 h, levels of glycolytic intermediates including glucose-6-phosphate G6P, fructose-1,6-bisphosphate FBP, glyceraldehyde 3-phosphate (GAP), dihydroxyacetone phosphate (DHAP), and […] 3-phosphoglyceric acid PGA in respective cells were measured by using LC-MS/MS; and additionally, the levels of fructose-1,6-bisphosphate in each glioma cell strain at 12 h and 36 h were measured.

[3] = system: patient-derived glioma cells Tumor 3; assay: as above; format: cell-based, human; conditions: Tumor 3, 1.6 mM, 36 h
Experimental: as §1

[4] = system: patient-derived glioma cells Tumor 1; assay: as above; format: cell-based, human; conditions: Tumor 1, 1.6 mM, 36 h
Experimental: as §1

SHG-44 = assay: as above; format: cell-based, human; conditions: SHG-44, 1.6 mM, 36 h
Experimental: as §1

glioma cells U87-MG = assay: Lactic acid released by glioma cells (glycolysis); format: cell-based, human
Experimental: as §2

Huh-7 = assay: Cell viability, Sulforhodamine B (SRB) staining; format: cell-based, human; conditions: Homo sapiens, Huh-7, 72 h, FBP 0.8 mM
Experimental: Human liver cancer cell strains Bel-7402 and huh-7, which had been incubated for 24 hours, were respectively incubated in a medium containing 1.6 mM or 0.8 mM of trisodium fructose-1,6-bisphosphate, a medium containing 0.2 mM of metformin or 25 μM of sitagliptin, and a medium containing 0.8 mM of trisodium fructose-1,6-bisphosphate and 0.2 mM of metformin/25 μM of sitagliptin for 72 h. A control group (Con) was not treated with the agent. Cell viability was determined by Sulforhodamine B (SRB) staining analysis method.

melanoma B16 cell = assay: Cell viability, Sulforhodamine B (SRB) staining; conditions: Mus musculus, B16, 72 h
Experimental: Mouse melanoma B16 cells, which had been incubated for 24 hours, were incubated in a medium containing 0.8 mM of trisodium fructose-1,6-bisphosphate, a medium containing 20 μM of sitagliptin, and a medium containing 0.8 mM of trisodium fructose-1,6-bisphosphate and 20 μM of sitagliptin for 72 h. A control group (Con) was not treated with the agent. Cell viability was determined by Sulforhodamine B (SRB) staining analysis method.

U87MG = assay: Tricarboxylic acid circulation intermediates in cytoplasm and mitochondria (LC-MS/MS); format: cell-based, human; conditions: 1.6 mM, 36 h
Experimental: Human glioma cell strain (U87MG) was cultured in a medium containing 1.6 mM of trisodium fructose-1,6-bisphosphate for 36 h, and then cytoplasm and mitochondria were separated. Levels of tricarboxylic acid circulation intermediates in cytoplasm and mitochondria were respectively measured by LC-MS/MS.

glioma cells SHG-44 = assay: Lactic acid released by glioma cells (glycolysis); format: cell-based, human
Experimental: as §2

U87-MG [5] = assay: Western Blot of key glycolytic enzymes; format: cell-based, human; conditions: 0.8 mM, 1 h to 48 h
Experimental: as §2

O=C(COP(=O)(O)O)[C@@H](O)[C@H](O)[C@H](O)COP(=O)(O)O [FBP, fructose-1,6-bisphosphate]
hind paw retraction latent period (hot plate 52° C.) ([1]; 400 mg/kg ig once per day, day 7 and any later time point, vs model group): significantly longer | efficacy against peripheral neuralgia over treatment duration ([1]; high-dose FBP (400 mg/kg)): gradually disappears | efficacy against peripheral neuralgia over treatment duration ([1]; low-dose FBP (200 mg/kg)): gradually increases | Relative levels of lactic acid (compared with the control group) (glioma cells KNS-89; KNS-89, 0.8 mM, 12 h): 0.75 ± 0.11 | Relative levels of lactic acid (compared with the control group) (glioma cells KNS-89; KNS-89, 0.8 mM, 24 h): 0.94 ± 0.16 | Relative levels of lactic acid (compared with the control group) (glioma cells KNS-89; KNS-89, 0.8 mM, 36 h): 0.78 ± 0.09 | Relative levels of lactic acid (compared with the control group) (glioma cells KNS-89; KNS-89, 1.6 mM, 12 h): 0.87 ± 0.03 | Relative levels of lactic acid (compared with the control group) (glioma cells KNS-89; KNS-89, 1.6 mM, 24 h): 0.83 ± 0.20 | Relative levels of lactic acid (compared with the control group) (glioma cells KNS-89; KNS-89, 1.6 mM, 36 h): 0.62 ± 0.10 | Increase folds of intracellular DHAP (compared with the control group) (U87-MG [2]): 944.4 folds | Increase folds of intracellular F6P (compared with the control group) (U87-MG [2]): 47.31 folds | Increase folds of intracellular FBP (compared with the control group) (U87-MG [2]): 149.69 folds | Increase folds of intracellular GAP (compared with the control group) (U87-MG [2]): 1222.86 folds | Increase folds of intracellular PGA (compared with the control group) (U87-MG [2]): 3.03 folds | Increase folds of intracellular DHAP (compared with the control group) [3]: 55.58 folds | Increase folds of intracellular F6P (compared with the control group) [3]: 14.12 folds | Increase folds of intracellular FBP (compared with the control group) [3]: 22.94 folds | Increase folds of intracellular GAP (compared with the control group) [3]: 76.22 folds | Increase folds of intracellular PGA (compared with the control group) [3]: 1.86 folds | Increase folds of intracellular DHAP (compared with the control group) [4]: 4.9 folds | Increase folds of intracellular F6P (compared with the control group) [4]: 2.02 folds | Increase folds of intracellular FBP (compared with the control group) [4]: 8.27 folds | Increase folds of intracellular GAP (compared with the control group) [4]: 7.22 folds | Increase folds of intracellular PGA (compared with the control group) [4]: 1.13 folds | Increase folds of intracellular DHAP (compared with the control group) (SHG-44): 12.48 folds | Increase folds of intracellular F6P (compared with the control group) (SHG-44): 3.12 folds | Increase folds of intracellular FBP (compared with the control group) (SHG-44): 10.74 folds | Increase folds of intracellular GAP (compared with the control group) (SHG-44): 21.03 folds | Increase folds of intracellular PGA (compared with the control group) (SHG-44): 2.04 folds | Relative levels of lactic acid (compared with the control group) (glioma cells U87-MG; 0.8 mM, 12 h): 0.96 ± 0.13 | Relative levels of lactic acid (compared with the control group) (glioma cells U87-MG; 0.8 mM, 24 h): 0.73 ± 0.05 | Relative levels of lactic acid (compared with the control group) (glioma cells U87-MG; 0.8 mM, 36 h): 0.56 ± 0.18 | Relative levels of lactic acid (compared with the control group) (glioma cells U87-MG; 1.6 mM, 12 h): 1.09 ± 0.11 | Relative levels of lactic acid (compared with the control group) (glioma cells U87-MG; 1.6 mM, 24 h): 0.71 ± 0.05 | Relative levels of lactic acid (compared with the control group) (glioma cells U87-MG; 1.6 mM, 36 h): 0.39 ± 0.03 | viability at 800 µM (Huh-7; STG 25 μM, read-out: cell viability (Con = 100)): 80.4 ± 3.63% | cytotoxicity at 800 µM (Huh-7; sitagliptin 25 μM, read-out: cell viability inhibited): 20% | viability at 800 µM (melanoma B16 cell; read-out: cell viability (Con = 100)): 77.7 ± 7.29% | cytotoxicity at 800 µM (melanoma B16 cell; read-out: cell viability inhibited): 22% | Relative level of Ac-CoA (compared with the control group) (U87MG; cytoplasm): 0.02 ± 0.01 | Relative level of Cit (compared with the control group) (U87MG; cytoplasm): 0.28 ± 0.01 | Relative level of OAA (compared with the control group) (U87MG; cytoplasm): 0.19 ± 0.01 | Relative level of α-KG (compared with the control group) (U87MG; cytoplasm): 1.20 ± 0.12*^ | Relative level of Ac-CoA (compared with the control group) (U87MG; mitochondria): 1.38 ± 0.11 | Relative level of Cit (compared with the control group) (U87MG; mitochondria): 1.02 ± 0.06 | Relative level of OAA (compared with the control group) (U87MG; mitochondria): 2.02 ± 0.13 | Relative level of α-KG (compared with the control group) (U87MG; mitochondria): 2.42 ± 0.04 | Relative levels of lactic acid (compared with the control group) (glioma cells SHG-44; SHG-44, 0.8 mM, 12 h): 1.06 ± 0.05 | Relative levels of lactic acid (compared with the control group) (glioma cells SHG-44; SHG-44, 0.8 mM, 24 h): 0.87 ± 0.01 | Relative levels of lactic acid (compared with the control group) (glioma cells SHG-44; SHG-44, 0.8 mM, 36 h): 0.83 ± 0.05 | Relative levels of lactic acid (compared with the control group) (glioma cells SHG-44; SHG-44, 1.6 mM, 12 h): 0.89 ± 0.09 | Relative levels of lactic acid (compared with the control group) (glioma cells SHG-44; SHG-44, 1.6 mM, 24 h): 0.75 ± 0.07 | Relative levels of lactic acid (compared with the control group) (glioma cells SHG-44; SHG-44, 1.6 mM, 36 h): 0.58 ± 0.06 | levels of HK2, PFKFB3, PKM2 and LDH5 (Western Blot) (U87-MG [5]): quickly and continuously down-regulated

— US20200246364A1, “MEDICAL APPLICATION OF COMPOSITION OF FRUCTOSE-1,6-BISPHOSPHATE AND BLOOD CONCENTRATION STABILIZER THEREOF” (ZHEJIANG UNIVERSITY, priority 2017, published 2020)
